# “Also recorded” adds a separate entry of the source.
# Key:
# 451Lu (melanoma) cells = assay: Bafilomycin clamp experiment (autophagic flux); format: cell-based; conditions: 3 μM, with or without bafilomycin-A1, 24 hours
# A375P (melanoma) cells = assay: MTT anti-proliferative assay (72 hr) in A375P cells; format: cell-based; conditions: for anti-proliferative potency / activity (comparative): A375P and PANC1 cells, FIGS. 1C and 1D
# Procedure: (§1) (A) Schematic of dimeric antimalarials (B) A375P cells were plated in a 384-well highthroughput format and treated with the quinacrine-, mefloquine- and primaquine-based compounds shown (72 hr, 1 nM-30 μM). Viability was standardized to vehicle (water) treated controls and shown are Log IC50 values calculated using GraphPad Prism. Alamar blue. (C) A375P cells were treated with the DQ compound library (72 hr, 1 nM-30 μM) MTT. (D) PANC1 cells were treated identically to (C). (E) PANC1 cells were treated with the DQ compound library as well as Lys05, Spautin and SBI-0206965 (72 hr, 3 μM). Apoptosis was assessed by Annexin-V/flow cytometry.
# For MTT assays, cells were plated in 96-well plates (2,000 cells/well), allowed to adhere overnight, and subsequently treated in triplicate for 72 hours. MTT reagent (Roche) was applied, cells were solubilized and absorbance was read at 570 nm, with background subtraction at 690 nm. The clonogenic assay was performed as previously described. Briefly, cells were suspended in appropriate culture media, and plated in 6-well plates (2×10^3 cells/well). Medium was changed and drug treatment refreshed every 3-4 days for 2 weeks. Cells were subsequently stained with crystal violet and quantified.
# In an attempt to improve in vivo activity, we designed a series of second-generation analogs of Lys05 to test the effect of changing each of the separate parts of the Lys05 structure on lysosomal inhibition and cytotoxicity. Replacement of the linker of Lys05 with the commercially available linker spermidine and exchanging the aromatic rings of Lys05 from CQ to the antimalarial-based heterocyclic systems primaquine (PQ), mefloquine (MQ) and quinacrine (QC) was interrogated (FIG. 1A). The dimeric antimalarial compounds were named DC (dimeric chloroquine), DM (dimeric mefloquine), DP (dimeric primaquine) and DQ (dimeric quinacrine). The dimeric compounds were named followed by three digits (m, n, r) where m signifies the number of carbons to the left of the central nitrogen, the n signifies the number of carbons on the right of the central nitrogen and the r signifies if the central nitrogen is methylated (1) or not (0). […] We generated a focused library of DQs with triamine linkers of increasing length ranging from lengths of two to eleven carbons between the QC heterocycle and the central nitrogen of the triamine linker. Both secondary and tertiary amine derivatives of each analog were generated to determine the role of central nitrogen alkylation on biological activity. A375P and PANC1 (pancreatic cancer) cells were treated with CQ, Lys05, QC and the DQ library, establishing the increase in anti-proliferative potency of DQs relative to monomeric QC. […] We observed a clear relationship between linker length and potency amongst the DQs. […] When tested in parallel to the DQs. […] PANC1 cells were treated with the panel of DQs (3 uM) as well as Spautin-1 (3 μM) and SBI-0206965 (3 μM) for 24 hours.
# A375P cells [1] = assay: Galectin-3 punctae assay (lysosomal membrane permeabilization); format: cell-based; conditions: 6 hours (LLOMe 3 hr, 2 mM)
# Procedure: (§2) FIG. 3: Central nitrogen methylation status dictates DNA damage versus lysosomal membrane permeability. […] Cells were imaged with fluorescent microscopy, phospho-H2AX+ cells were scored using ImageJ software analysis and quantified to the right. (B) A375P cells were treated identical to the conditions in (A), with the addition of the positive control LLoMe (3 hr, 2 mM). Cells were subsequently stained with galectin-3 and imaged with fluorescent microscopy. The formation of galectin-3 punctae, which signify lysosomal membrane permeabilization, are pointed out with yellow arrows.
# When lysosomes are healthy, galectin-3 is uniformly dispersed throughout the cell. However, when the lysosome is damaged, galectin-3 rapidly localizes to the site of damaged lysosomes, appearing as punctae and marking individual leaky lysosomes.
# A375P cells [2] = assay: phospho-H2AX immunofluorescence (DNA damage); format: cell-based; conditions: 6 hr, 3 μM
# Procedure: as §2
# The longer linked DQs can be separated into two classes based on central nitrogen substitution (secondary or tertiary amine)—those that localize to the nucleus and those that localize to the lysosome. We next sought to determine whether both classes of DQs cause DNA damage since quinacrine is known to intercalate DNA. […] Furthermore, the difference in DNA damage induced by unmethylated DQs versus the corresponding methylated DQs for each pair of compounds increase with increasing linker length.
# [3] = system: 1205Lu melanoma xenografts; assay: 1205Lu melanoma xenograft model; format: in vivo, NSG mice; conditions: 8 mg/kg i.p., 2 days on / 2 days off
# Procedure: FIG. 5: DQ661 has significant single-agent in vivo activity in melanoma xenograft model. […]. Mice were randomly split into 4 arms and treated with vehicle control (water, i.p.), quinacrine (8 mg/kg, i.p.), DQ660 (8 mg/kg, i.p.) or DQ661 (8 mg/kg, i.p.). Treatments were given as shown by the black arrows, following a regimen of 2 days on treatment followed by 2 days off treatment. (C) Representative electron micrographs from melanoma xenograft tumors harvested after 2 days of treatment according to (B). (D) Average tumor volumes for each treatment arm are shown. Each point represents the mean of N=8 mice per treatment arm and the error bars represent standard error (s.e.) (C) Representative EM for tumors treated in each arm. (E) A schematic for how mice were treated in (F). […]. Mice were randomly split into 3 arms and treated with water (i.p.), DQ661 (2 mg/kg, i.p.) or DQ661 (4 mg/kg, i.p.). Treatments were give as shown by the black arrows, following a regimen of 2 days on treatment followed by 2 days […]. Tumor volume is shown. Each point represents the mean of N=8 mice per treatment arm and the error bars represent s.e. (G) Average tumor growth rate for each treatment arm are shown. (H) Protein lysate was harvested from mouse tumors at the end of the experiment and immunoblotted for LC3B, phospho-4E-BP1 T37_T65, phospho-4E-BP1 S240_S244 and Actin. Quantification of proteins standardized to control mice levels are shown to the right.
# Five to seven-week old NOD-scid gamma (NSG) mice (Jackson Laboratory) were used for xenograft studies with the 1205Lu melanoma cell line. Tumor generation, tumor measurement and tumor harvesting performed as previously described (ref). For the pancreatic cancer model, five to seven-week old C57BL/6 mice (Jackson Laboratory) and maintained under pathogen-free conditions. 2×10^6 G43 cells were subcutaneously injected with an equal volume of matrigel (BD) over the right flank […] and tumors became palpable after 5-6 days. Mice were enrolled on day 6 and given Gemcitabine (120 mg/kg, i.p.). DQ661 (4 mg/kg, i.p.) was given on days 7, 8, 12, 13, 17 and 18. Perpendicular tumor diameters were measured sing electronic calipers and volume was calculated leveraging the formula L×W^2×0.5, where L is the longest dimension and W is the perpendicular dimension. All animal experiments were performed in accordance to the protocols approved by the Institute of Animal Care and Use Committee of the University of Pennsylvania.
# . After 1-2 weeks, tumors were palpable and mice were treated with vehicle control (water), quinacrine (8 mg/kg), DQ660 (8 mg/kg) or DQ661 (8 mg/kg) i.p (FIG. 5A). […]. Therefore another 1205Lu xenograft experiment was performed with mice treated with either vehicle control (water, n=6) or DQ661 (2 or 4 mg/kg, n=6) for a period of 14 days (FIG. 5e, 5F).
# mTORC1 = assay: Immunoblot of mTORC1 signaling and LC3B, panel of lysosomal inhibitors; conditions: A375P cells; for 4E-BP1 phosphorylation: PES 10 μM, PET 10 μM, Bafilomycin A1 100 nM; for mTORC1 activity (Western blotting): DQ661 3 μM, Pepstatin A 10 μG/mL, Siramesine 8 μM
# PANC1 cells = assay: Annexin V binding flow cytometry apoptosis assay; format: cell-based; conditions: 3 μM, 24 hours
# Procedure: as §1
# In an attempt to improve in vivo activity, we designed a series of second-generation analogs of Lys05 to test the effect of changing each of the separate parts of the Lys05 structure on lysosomal inhibition and cytotoxicity. Replacement of the linker of Lys05 with the commercially available linker spermidine and exchanging the aromatic rings of Lys05 from CQ to the antimalarial-based heterocyclic systems primaquine (PQ), mefloquine (MQ) and quinacrine (QC) was interrogated (FIG. 1A). The dimeric antimalarial compounds were named DC (dimeric chloroquine), DM (dimeric mefloquine), DP (dimeric primaquine) and DQ (dimeric quinacrine). […]
molecule,measurement,setting,value
COc1ccc2nc3cc(Cl)ccc3c(NCCN(C)CCNc3c4ccc(Cl)cc4nc4ccc(OC)cc34)c2c1 [DQ 221],effect on autophagic flux (LC3II/LC3I ratio with vs without bafilomycin-A1),451Lu (melanoma) cells,autophagy inhibitors
same,anti-proliferative potency / activity (comparative),A375P (melanoma) cells,same activity as monomeric QC; also recorded: potency was equal to monomeric quinacrine
same,galectin-3 staining pattern,A375P cells [1],diffuse staining for galectin-3
COc1ccc2nc3cc(Cl)ccc3c(NCCCNCCCNc3c4ccc(Cl)cc4nc4ccc(OC)cc34)c2c1 [DQ 330],anti-proliferative potency / activity (comparative),A375P (melanoma) cells,significant increase in anti-proliferative potency
COc1ccc2nc3cc(Cl)ccc3c(NCCCCNCCCNc3c4ccc(Cl)cc4nc4ccc(OC)cc34)c2c1 [DQ 340],"IC50, anti-proliferative activity","A375P (melanoma) cells; A375P cells, FIG. 1B",low nanomolar
COc1ccc2nc3cc(Cl)ccc3c(NCCCCN(C)CCCNc3c4ccc(Cl)cc4nc4ccc(OC)cc34)c2c1 [DQ 341],effect on autophagic flux (LC3II/LC3I ratio with vs without bafilomycin-A1),451Lu (melanoma) cells,autophagy inhibitors
COc1ccc2nc3cc(Cl)ccc3c(NCCCCN(C)CCCCNc3c4ccc(Cl)cc4nc4ccc(OC)cc34)c2c1 [DQ 441],effect on autophagic flux (LC3II/LC3I ratio with vs without bafilomycin-A1),451Lu (melanoma) cells,autophagy inhibitors
COc1ccc2nc3cc(Cl)ccc3c(NCCCCCNCCCCCNc3c4ccc(Cl)cc4nc4ccc(OC)cc34)c2c1 [DQ 550],"DNA damage (phospho-H2AX, γ-H2AX)",A375P cells [2],significantly greater levels of DNA damage relative to their methylated counterparts
same,galectin-3 staining pattern,A375P cells [1],diffuse staining for galectin-3
COc1ccc2nc3cc(Cl)ccc3c(NCCCCCN(C)CCCCCNc3c4ccc(Cl)cc4nc4ccc(OC)cc34)c2c1 [DQ 551],effect on autophagic flux (LC3II/LC3I ratio with vs without bafilomycin-A1),451Lu (melanoma) cells,autophagy inhibitors
same,galectin-3 staining pattern,A375P cells [1],punctate distribution of galectin-3
COc1ccc2nc3cc(Cl)ccc3c(NCCCCCCNCCCCCCNc3c4ccc(Cl)cc4nc4ccc(OC)cc34)c2c1 [DQ 660],"DNA damage (phospho-H2AX, γ-H2AX)",A375P cells [2],significantly greater levels of DNA damage relative to their methylated counterparts
same,tumor growth,[3],modest but significant growth impairment of tumors
same,galectin-3 staining pattern,A375P cells [1],diffuse staining for galectin-3
"COC(=O)[C@H](CC(C)C)NC(=O)[C@@H](N)CC(C)C [LLOMe, L-leucyl-L-leucine methyl ester, reference compound]",galectin-3 staining pattern,A375P cells [1],punctate distribution of galectin-3
NS(=O)(=O)C#Cc1ccccc1 [PES],4E-BP1 phosphorylation,mTORC1,hyperphosphorylation of 4E-BP1
"CNC(=O)c1ccccc1Oc1nc(Nc2cc(OC)c(OC)c(OC)c2)ncc1Br [SBI-0206965, reference compound]",anti-proliferative potency / activity (comparative),A375P (melanoma) cells,did not have significantly increased anti-cancer activity relative to monomeric chloroquine or monomeric quinacrine
same,apoptosis (annexin V),PANC1 cells,did not induce significant levels of apoptosis
Fc1ccc(-n2cc(CCCCN3CCC4(CC3)OCc3ccccc34)c3ccccc32)cc1 [Siramesine],mTORC1 activity (Western blotting),mTORC1,did not inhibit mTORC1 activity
"Fc1ccc(CNc2ncnc3ccc(F)cc23)cc1 [Spautin-1, reference compound]",anti-proliferative potency / activity (comparative),A375P (melanoma) cells,did not have significantly increased anti-cancer activity relative to monomeric chloroquine or monomeric quinacrine
same,apoptosis (annexin V),PANC1 cells,did not induce significant levels of apoptosis
"CCN(CC)CCCC(C)Nc1c2ccc(Cl)cc2nc2ccc(OC)cc12 (centres unmarked) [quinacrine, reference compound]",effect on autophagic flux (LC3II/LC3I ratio with vs without bafilomycin-A1),451Lu (melanoma) cells,induces autophagic flux
same,tumor growth,[3],no significant effect on tumor growth compared to vehicle control
same,galectin-3 staining pattern,A375P cells [1],diffuse staining for galectin-3
Bafilomycin,4E-BP1 phosphorylation,mTORC1,hyperphosphorylation of 4E-BP1
Pepstatin A,mTORC1 activity (Western blotting),mTORC1,did not significantly affect mTORC1 activity

# From patent publication US10774047B2 (THE TRUSTEES OF THE UNIVERSITY OF PENNSYLVANIA, priority 2015, dated 2020)
